According to patent US20040038216A1, “Method for the structural determination of ligands bound to macromolecular targets by nuclear magnetic resonance” (priority 2002, published 2004):
Marks after values point to notes of the source that are not given here.

Key:
[1] = molecular target: Bcl-xL (Homo sapiens, UniProt Q07817); assay: NMR-based screening; type: binding; details: independently determined
Procedure: (§1) 500 uL of the ligand solution was transferred to each of 8 NMR tubes (Wilmad). The protein solutions were then added to the NMR tubes to a final protein concentration of 40 uM in the following manner: Sample 1: unlabeled Bcl-xL; Sample 2: U-^2H-Bcl-xL; Sample 3: U-^2H-{^1H-R}-Bcl-xL; Sample 4: U-^2H-{^1H-Y}-Bcl-xL; Sample 5: U-^2H-{^1H-L}-Bcl-xL; Sample 6: U-2H-{^1H-I}-Bcl-xL; Sample 7: U-^2H-{^1H-M}-Bcl-xL; Sample 8: No protein.

[2] = molecular target: T1, Bcl-xL (Homo sapiens, UniProt Q07817, DEL45-84); assay: STD-NMR (saturation transfer difference) spectra on Bcl-xL/ligand complexes; type: binding
T1 construct: deletion mutant of Bcl-xL (that lacks the putative carboxy-terminal transmembrane region and residues 49-88) was used; His tag (C); made in house; host or cells: E. coli BL21(DE3)
T1 sequence (Q07817 with tags, fused parts or gaps DEL45-84 limits assumed): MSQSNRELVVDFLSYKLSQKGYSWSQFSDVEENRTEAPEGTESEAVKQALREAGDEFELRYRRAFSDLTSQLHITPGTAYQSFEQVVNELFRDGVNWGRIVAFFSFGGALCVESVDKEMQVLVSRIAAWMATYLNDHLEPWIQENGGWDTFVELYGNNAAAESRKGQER
Procedure: A sample of unlabeled Bcl-xL as well as samples of perdeuterated Bcl-xL that were selectively protonated at the specific amino acids Arg, Tyr, Leu, Ile, and Met were prepared in accordance with the procedures of Example 1. Samples of 200 uM 4-(4-fluorophenyl)benzoic acid (3, Array), [drawing 1]
as §1
STD-NMR spectra (Mayer and Meyer, J. Am. Chem. Soc. 2001, 123, 6108-6117) were determined on each of the eight samples. All NMR experiments were performed at 300K on a Bruker Avance DRX500 system equipped with a CryoProbe. The pulse sequence for the ID STD-NMR spectra was identical to that used by Mayer and Meyer (2001) except that a CPMG T2-filter was used instead of a T1p-filter to remove background protein resonances. Subtraction of the on- and off-resonance spectra was performed internally and a WATERGATE sequence was used for suppression of the residual solvent signal. On-resonance irradiation of the protein was performed by using a train of Gauss-shaped pulses of 2.5 ms length separated by a 2.5 ms delay, and alternating on-resonance irradiation was applied at 0.8 and 3.0 ppm. Off-resonance irradiation was applied at −10.0 ppm. 280 shaped pulses were used in the pulse train, leading to a total saturation time of 1.4 s. All spectra were acquired with a 100 ms T2-filter, 1024 complex points, 1024 scans, a ^1H sweep width of 8333 Hz, and a total recycle time of 2.0 s.
All NMR spectra were processed and analyzed on Silicon Graphics computers using standard protocols well-known in the art. STD-NMR spectra for biaryl 3 in the presence of unlabeled Bcl-xL (Sample 1), U-^2H-Bcl-xL (Sample 2), and no protein are shown in FIG. 5. […] Therefore, the signal intensity for each resonance of the biaryl 3 in the presence of unlabeled and perdeuterated protein was taken as the maximum and minimum intensity, respectively, for the NOE in the presence of the selectively protonated samples. The intensity of the NOEs could then be calculated using the following equation, [formula]
where I(norm) is the normalized intensity in the STD-NMR spectrum for a given biaryl resonance, and I(SL), I(^2H), and I(^1H) are the intensities of the resonance in the presence of the selectively protonated, perdeuterated, and unlabeled protein, respectively. The normalized NOE intensities can be visualized by simple subtraction of the STD-NMR spectrum of the ligand in the presence of deuterated protein from each of the selectively protonated samples. In these spectra, it is clearly seen that an arginine residue is in close contact with the benzoic acid portion of 3 (magnetization transfer to HA and HB/C), but not the fluorophenyl portion. It is also clear that a tyrosine and leucine residue is in contact with the fluorophenyl portion of 3 (magnetization transfer to HD and HB/C), but not the benzoic acid portion. Spectra shown in (E) and (F) indicate that no portion of the biaryl is in contact with any isoleucine or methionine residues.
These NOE intensities were then converted into distance restraints for use in structural calculations in the following manner. For any given amino acid type and ligand resonance, normalized NOE intensities less than 5% were treated as having no interaction. Therefore, distances between that ligand atom and all protons on all amino acids of that specific type were set at greater than 5 Å. For NOE intensities greater than 15%, ambiguous distance restraints were assigned. […]

[3] = ligand proton HA, Sample 1 Unlabeled Bcl-xL
[4] = ligand proton HA, Sample 2 U-2H-Bcl-xL
[5] = ligand proton HD, Sample 1 Unlabeled Bcl-xL
[6] = ligand proton HD, Sample 2 U-2H-Bcl-xL
[7] = ligand protons HB/HC, Sample 1 Unlabeled Bcl-xL
[8] = ligand protons HB/HC, Sample 2 U-2H-Bcl-xL

Bcl-xL (Homo sapiens, UniProt Q07817), sequence (Q07817 whole entry): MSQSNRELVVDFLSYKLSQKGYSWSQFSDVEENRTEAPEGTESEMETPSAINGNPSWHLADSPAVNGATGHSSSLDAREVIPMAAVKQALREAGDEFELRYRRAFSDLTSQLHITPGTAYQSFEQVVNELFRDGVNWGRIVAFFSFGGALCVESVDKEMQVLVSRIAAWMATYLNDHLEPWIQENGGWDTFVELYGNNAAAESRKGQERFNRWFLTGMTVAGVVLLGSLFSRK

O=C(O)c1ccc(-c2ccc(F)cc2)cc1 [biaryl 3, 4-(4-fluorophenyl)benzoic acid]
binding to Bcl-xL (NMR-based screening) [1]: ligand for Bcl-xL
Normalized NOE intensity ([2]; HA protons, in the presence of U-2H-{1H-Y}-Bcl-xL): 3%
Normalized NOE intensity ([2]; HD protons, in the presence of U-2H-{1H-Y}-Bcl-xL): 22%
Distance restraint derived from the NOE intensity data ([2]; ligand proton HA to arginine protons, Sample 3 U-2H-{1H-R}-Bcl-xL): <4^a Å
Distance restraint derived from the NOE intensity data ([2]; ligand proton HA to isoleucine protons, Sample 6 U-2H-{1H-I}-Bcl-xL): >5 Å
Distance restraint derived from the NOE intensity data ([2]; ligand proton HA to methionine protons, Sample 7 U-2H-{1H-M}-Bcl-xL): >5 Å
Distance restraint derived from the NOE intensity data ([2]; ligand proton HA to tyrosine protons, Sample 4 U-2H-{1H-Y}-Bcl-xL): >5 Å
Actual NOE intensity [2, 3]: (175)
Normalized NOE intensity [2, 3]: 100^a
Actual NOE intensity [2, 4]: (17)
Normalized NOE intensity [2, 4]: 0
Actual NOE intensity ([2]; ligand proton HA, Sample 3 U-2H-{1H-R}-Bcl-xL): (57)
Actual NOE intensity ([2]; ligand proton HA, Sample 4 U-2H-{1H-Y}-Bcl-xL): (22)
Actual NOE intensity ([2]; ligand proton HA, Sample 5 U-2H-{1H-L}-Bcl-xL): (28)
Actual NOE intensity ([2]; ligand proton HA, Sample 6 U-2H-{1H-I}-Bcl-xL): (18)
Actual NOE intensity ([2]; ligand proton HA, Sample 7 U-2H-{1H-M}-Bcl-xL): (23)
Distance restraint derived from the NOE intensity data ([2]; ligand proton HD to leucine protons, Sample 5 U-2H-{1H-L}-Bcl-xL): <3 Å
Actual NOE intensity [2, 5]: (167)
Normalized NOE intensity [2, 5]: 100
Actual NOE intensity [2, 6]: (28)
Normalized NOE intensity [2, 6]: 0
Actual NOE intensity ([2]; ligand proton HD, Sample 3 U-2H-{1H-R}-Bcl-xL): (40)
Actual NOE intensity ([2]; ligand proton HD, Sample 4 U-2H-{1H-Y}-Bcl-xL): (59)
Actual NOE intensity ([2]; ligand proton HD, Sample 5 U-2H-{1H-L}-Bcl-xL): (93)
Actual NOE intensity ([2]; ligand proton HD, Sample 6 U-2H-{1H-I}-Bcl-xL): (40)
Actual NOE intensity ([2]; ligand proton HD, Sample 7 U-2H-{1H-M}-Bcl-xL): (45)
Distance restraint derived from the NOE intensity data ([2]; ligand protons HB/HC to arginine protons, Sample 3 U-2H-{1H-R}-Bcl-xL): <5 Å
Distance restraint derived from the NOE intensity data ([2]; ligand protons HB/HC to isoleucine protons, Sample 6 U-2H-{1H-I}-Bcl-xL): >5 Å
Distance restraint derived from the NOE intensity data ([2]; ligand protons HB/HC to leucine protons, Sample 5 U-2H-{1H-L}-Bcl-xL): <5 Å
Distance restraint derived from the NOE intensity data ([2]; ligand protons HB/HC to methionine protons, Sample 7 U-2H-{1H-M}-Bcl-xL): >5 Å
Actual NOE intensity [2, 7]: (200)
Normalized NOE intensity [2, 7]: 100
Actual NOE intensity [2, 8]: (32)
Normalized NOE intensity [2, 8]: 0
Actual NOE intensity ([2]; ligand protons HB/HC, Sample 3 U-2H-{1H-R}-Bcl-xL): (70)
Actual NOE intensity ([2]; ligand protons HB/HC, Sample 4 U-2H-{1H-Y}-Bcl-xL): (49)
Actual NOE intensity ([2]; ligand protons HB/HC, Sample 5 U-2H-{1H-L}-Bcl-xL): (71)
Actual NOE intensity ([2]; ligand protons HB/HC, Sample 6 U-2H-{1H-I}-Bcl-xL): (30)
Actual NOE intensity ([2]; ligand protons HB/HC, Sample 7 U-2H-{1H-M}-Bcl-xL): (30)
